Where a SMILES comes first, the peptide text is derived from it. [ ]: non-standard residue; d: D form. The star is where a group is joined. Adamantane1carbonyl = O=C(C12CC3CC(CC(C3)C1)C2)*; Orn = NCCC[C@H](N)C(=O)O; Boc = CC(C)(C)OC(=O)*
Assays:
Mus musculus [1] = experiment: Antinociceptive activity was determined using the phenylquinone writhing assay by […] administration; type: functional
[2] = biological target: Neurotensin receptor type 1 (Rattus norvegicus, UniProt P20789); experiment: Neurotensin receptor binding affinity by displacement of [3H]- neurotensin
Chain of Neurotensin receptor type 1 (P20789 whole entry): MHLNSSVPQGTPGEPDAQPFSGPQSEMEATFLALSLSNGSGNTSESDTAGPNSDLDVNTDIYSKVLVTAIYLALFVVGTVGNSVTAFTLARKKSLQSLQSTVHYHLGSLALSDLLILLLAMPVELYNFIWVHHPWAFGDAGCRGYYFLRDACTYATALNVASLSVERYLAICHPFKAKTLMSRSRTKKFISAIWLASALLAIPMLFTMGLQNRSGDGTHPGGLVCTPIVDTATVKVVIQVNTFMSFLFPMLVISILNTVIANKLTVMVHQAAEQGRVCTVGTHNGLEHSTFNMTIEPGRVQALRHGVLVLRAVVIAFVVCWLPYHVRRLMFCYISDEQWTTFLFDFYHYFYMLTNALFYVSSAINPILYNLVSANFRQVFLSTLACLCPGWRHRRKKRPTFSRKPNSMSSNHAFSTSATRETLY

Mus musculus [3] = experiment: Antinociceptive activity was determined using the phenylquinone writhing assay by intravenous administration; type: functional

Question: Which results are given for `CC[C@H](C)[C@H](NC(=O)[C@H](Cc1ccc(O)cc1)N/C=C/C(=O)[C@@H]1CCCN1C(=O)[C@H](CCCCN)NC(=O)OC(C)(C)C)C(=O)N[C@@H](CC(C)C)C(=O)O`?
Answer: Activity (Mus musculus [1]): 22 ug mouse-1; Ki [2]: 1630 nM; Activity (Mus musculus [3]): >27 mg/kg

Question: For `CC[C@H](C)[C@H](NNCC(=O)[C@H](Cc1ccc(O)cc1)NC(=O)[C@@H]1CCCN1C(=O)[C@H](CCCN)NC(=O)OC(C)(C)C)C(=O)N[C@@H](CC(C)C)C(=O)O`, which Activity (Mus musculus [1]) is on record?
Answer: The Activity was 29 ug mouse-1.

Question: What about the Ki [2] of the same compound?
Answer: Its Ki is greater than 10000 nM.

Question: With `CC[C@H](C)[C@H](NC(=O)[C@H](Cc1ccc(O)cc1)NNCC(=O)[C@@H]1CCCN1C(=O)[C@H](CCCCN)NC(=O)C12C[C@H]3C[C@@H](C1)C[C@@H](C2)C3)C(=O)N[C@@H](CC(C)C)C(=O)O` as the compound, how does the Activity (Mus musculus [1]) read?
Answer: Its Activity is 4.5 ug mouse-1.

Question: What about the Ki [2] of the same compound?
Answer: Its Ki is 1610 nM.

Question: And the Activity (Mus musculus [3])?
Answer: Its Activity is 20 mg/kg.

Question: What does the source list for `CC[C@H](C)[C@H](NNCC(=O)[C@H](Cc1ccc(O)cc1)NC(=O)[C@@H]1CCCN1C(=O)[C@H](CCCCN)NC(=O)C12C[C@H]3C[C@@H](C1)C[C@@H](C2)C3)C(=O)N[C@@H](CC(C)C)C(=O)O`?
Answer: Activity (Mus musculus [1]): >50 ug mouse-1; Ki [2]: 5960 nM

Question: Which Activity (Mus musculus [1]) does the source give for `CC[C@H](C)[C@H](NNCC(=O)[C@H](Cc1ccc(O)cc1)NC(=O)[C@@H]1CCCN1NCC(=O)[C@H](CCCCN)NC(=O)C12C[C@H]3C[C@@H](C1)C[C@@H](C2)C3)C(=O)N[C@@H](CC(C)C)C(=O)O` here?
Answer: The Activity was greater than 50 ug mouse-1.

Question: What about the Ki [2] of the same compound?
Answer: The Ki was 3860 nM.

Question: Which results are given for `CC[C@H](C)[C@H](NC(=O)[C@H](Cc1ccc(O)cc1)NNCC(=O)[C@@H]1CCCN1C(=O)[C@H](CCCN)NC(=O)OC(C)(C)C)C(=O)N[C@@H](CC(C)C)C(=O)O`?
Answer: Activity (Mus musculus [1]): 0.89 ug mouse-1; Ki [2]: 2980 nM; Activity (Mus musculus [3]): 37 mg/kg

Question: Which Activity (Mus musculus [1]) does the source give for `CC[C@H](C)[C@H](NC(=O)[C@H](Cc1ccc(O)cc1)NC(=O)[C@@H]1CCCN1C(=O)[C@H](CCCCN)NC(=O)C12CC3CC(CC(C3)C1)C2)C(=O)N[C@@H](CC(C)C)C(=O)O` (Adamantane1carbonyl-KPYIL-OH) here?
Answer: The Activity was 0.15 ug mouse-1.

Question: And the Ki [2]?
Answer: The Ki was 117 nM.

Question: What about the Activity (Mus musculus [3]) of the same compound?
Answer: Its Activity is 2.2 mg/kg.

Question: How did the Activity (Mus musculus [1]) turn out when `CC[C@H](C)[C@H](NC(=O)[C@H](Cc1ccc(O)cc1)NC(=O)[C@@H]1CCCN1C(=O)[C@H](CCCCN)NC(=O)OC(C)(C)C)C(=O)N[C@@H](CC(C)C)C(=O)O` (Boc-KPYIL-OH) was run?
Answer: Its Activity is 0.018 ug mouse-1.

Question: What about the Ki [2] of the same compound?
Answer: Its Ki is 63 nM.

Question: What about the Activity (Mus musculus [3]) of the same compound?
Answer: The Activity was 3 mg/kg.

Question: `CC[C@H](C)[C@H](NC(=O)[C@H](Cc1ccc(O)cc1)NC(=O)[C@@H]1CCCN1C(=O)[C@H](CCCN)NC(=O)OC(C)(C)C)C(=O)N[C@@H](CC(C)C)C(=O)O` (Boc-[Orn]PYIL-OH) was tested. Which Activity (Mus musculus [1]) did it give?
Answer: The Activity was 0.00097 ug mouse-1.

Question: And the Ki [2]?
Answer: Its Ki is 82 nM.

Question: What about the Activity (Mus musculus [3]) of the same compound?
Answer: The Activity was 0.74 mg/kg.

Question: With H-KPYIL-OH as the compound, how does the Activity (Mus musculus [1]) read?
Answer: The Activity was 5.9 ug mouse-1.

Question: What about the Ki [2] of the same compound?
Answer: Its Ki is 688 nM.

Question: And the Activity (Mus musculus [3])?
Answer: Its Activity is greater than 81 mg/kg.

Source: ChEMBL document CHEMBL1126486, “Stable isosteres of neurotensin c-terminal pentapeptides derived by modification of the amide function” (Bioorg Med Chem Lett, 1993)
